Where a SMILES comes first, the peptide text is derived from it. [ ]: non-standard residue; d: D form. The star is where a group is joined. Aoc = NCCCCCCCC(=O)O; Ahx = NCCCCCC(=O)O; Bn = c1ccc(C*)cc1
Biological target: Somatostatin receptor type 4 (Rattus norvegicus, UniProt P30937)
Sequence (P30937 whole entry): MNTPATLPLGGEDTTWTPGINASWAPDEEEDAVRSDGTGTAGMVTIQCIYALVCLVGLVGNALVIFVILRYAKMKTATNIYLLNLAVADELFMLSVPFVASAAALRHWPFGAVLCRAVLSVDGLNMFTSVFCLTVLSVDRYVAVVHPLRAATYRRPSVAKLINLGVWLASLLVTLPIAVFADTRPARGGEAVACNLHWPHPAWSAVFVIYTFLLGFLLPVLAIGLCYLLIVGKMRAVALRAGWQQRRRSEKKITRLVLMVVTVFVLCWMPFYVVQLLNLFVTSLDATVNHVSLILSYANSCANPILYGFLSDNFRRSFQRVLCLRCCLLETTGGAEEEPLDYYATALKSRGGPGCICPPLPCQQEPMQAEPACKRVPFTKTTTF

| Ki | Structure (SMILES) |
| --- | --- |
| 34 nM | C[C@@H](OCc1ccccc1)[C@@H]1NC(=O)[C@H](CCCCN)NC(=O)[C@@H](Cc2c[nH]c3ccccc23)NC(=O)[C@H](Cc2ccccc2)NC(=O)CCCCCNC1=O [c[Ahx-Phe-D-Trp-Lys-Thr(Bzl)]] (cyclo([Ahx]F[dW]KT(Bn))) |
| 50 nM | C[C@@H](OCc1ccccc1)[C@@H]1NC(=O)[C@H](CCCCN)NC(=O)[C@@H](Cc2c[nH]c3ccccc23)NC(=O)[C@H](Cc2ccccc2)NC(=O)CCCCCCCNC1=O [c[Aoc-Phe-D-Trp-Lys-Thr(Bzl)]] (cyclo([Aoc]F[dW]KT(Bn))) |

| Structure (SMILES) | Ki |
| --- | --- |
| CSCC[C@H](NC(=O)[C@H](C)NC(=O)[C@@H]1CCCN1C(=O)[C@H](CC(N)=O)NC(=O)[C@H](CO)NC(=O)[C@H](CC(N)=O)NC(=O)[C@H](C)NC(=O)[C@@H](N)CO)C(=O)N[C@@H](C)C(=O)N1CCC[C@H]1C(=O)N[C@@H](CCCNC(=N)N)C(=O)N[C@@H](CCC(=O)O)C(=O)N[C@@H](CCCNC(=N)N)C(=O)N[C@@H](CCCCN)C(=O)N[C@@H](C)C(=O)NCC(=O)N[C@H]1CSSC[C@@H](C(=O)O)NC(=O)[C@H](CO)NC(=O)[C@H]([C@@H](C)O)NC(=O)[C@H](Cc2ccccc2)NC(=O)[C@H]([C@@H](C)O)NC(=O)[C@H](CCCCN)NC(=O)[C@H](Cc2c[nH]c3ccccc23)NC(=O)[C@H](Cc2ccccc2)NC(=O)[C@H](Cc2ccccc2)NC(=O)[C@H](CC(N)=O)NC(=O)[C@H](CCCCN)NC1=O [somatostatin-28] | 0.23 nM |

— BindingDB's records for PubMed 8102785 (University of Pennsylvania, 1993)
